Data as given in patent US8173694B2, “Therapeutic agent” (Pentraxin Therapeutics Limited, priority 2001, dated 2012).

Tests used:
CRP in whole human serum = molecular target: T1, CRP in whole human serum (Homo sapiens, UniProt P02741); assay: Size exclusion chromatography of whole human serum mixed with drug: CRP; type: binding
T1 construct: Aliquots of a single pool of whole normal human serum, containing SAP and CRP; from tissue; host or cells: pooled whole normal human serum
T1 sequence (P02741 19-224): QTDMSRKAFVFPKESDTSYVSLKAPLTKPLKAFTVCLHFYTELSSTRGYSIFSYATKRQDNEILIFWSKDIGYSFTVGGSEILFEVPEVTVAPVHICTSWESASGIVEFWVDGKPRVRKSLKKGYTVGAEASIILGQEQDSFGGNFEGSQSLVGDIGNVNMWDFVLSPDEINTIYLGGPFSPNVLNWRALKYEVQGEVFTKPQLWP
Experimental: Aliquots of a single pool of whole normal human serum, containing SAP and CRP, were mixed with (R)-1-[6-(R)-2-Carboxy-pyrrolidin-1-yl]-6-oxo-hexanoyl]pyrrolidine-2-carboxylic acid at the molar ratios shown, with respect to pentraxin protomer, and analysed by size exclusion chromatography precisely as described previously (14). The mixtures and the column eluants contained either no calcium ions or 2 mM calcium, and the concentrations of drug appropriate to maintain the molar ratios indicated above. SAP in whole serum is a stable soluble pentameric assembly of protomers, stabilised by the presence of the normal high concentration of serum albumin. However as SAP is separated from serum albumin during gel filtration with a calcium containing eluant, the SAP autoaggregates and elutes entirely as high molecular weight polymers in the void volume of the column. This is because, in the absence of a specific ligand to which it can bind, isolated human SAP is insoluble in the presence of calcium (14). However in the absence of calcium, where no ligand binding or autoaggregation can occur, SAP forms stable decamers, providing an excellent marker for the elution volume of this molecular assembly (14). Human CRP is a stable pentamer either in the presence or absence of calcium and thus provides a robust marker for the elution position of that molecular form (14).

circulating SAP = molecular target: T2, circulating SAP (Mus musculus, UniProt P12246); assay: Circulating SAP in normal wild type mice; type: in vivo; conditions: none of the routes caused depletion
T2 construct: all the endogenous mouse SAP in the deposits; from tissue; host or cells: mice in vivo: amyloidotic organs, or plasma of normal wild type mice
T2 sequence (P12246 21-224): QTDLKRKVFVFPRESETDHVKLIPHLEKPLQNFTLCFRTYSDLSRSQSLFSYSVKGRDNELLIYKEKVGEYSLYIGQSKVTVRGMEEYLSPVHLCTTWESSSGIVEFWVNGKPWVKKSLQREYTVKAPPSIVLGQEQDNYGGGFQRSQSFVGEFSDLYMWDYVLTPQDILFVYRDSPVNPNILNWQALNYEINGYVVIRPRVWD
Experimental: When (R)-1-[6-(R)-2-Carboxy-pyrrolidin-1-yl]-6-oxo-hexanoyl]pyrrolidine-2-carboxylic acid was administered by continuous infusion for 5 days via an indwelling osmotic pump, it dissociated both radiolabelled human SAP tracer, with which the amyloid deposits had previously been loaded, and all the endogenous mouse SAP in the deposits (FIG. 3). […] The SAP-(R)-1-[6-(R)-2-Carboxy-pyrrolidin-1-yl]-6-oxo-hexanoyl]pyrrolidine-2-carboxylic acid complex is evidently recognised as abnormal in vivo and swiftly removed from the circulation, but is apparently formed and/or cleared less efficiently in vivo with mouse SAP compared to human SAP.

plasma SAP = molecular target: T3, plasma SAP (Homo sapiens, UniProt P02743); assay: Intravenous infusion for 48 h in patients: plasma SAP by electroimmunoassay; type: in vivo
T3 construct: from tissue; host or cells: plasma of patients in vivo
Experimental: Patients with different forms of systemic amyloidosis, and with varying amyloid loads received the doses of the drug shown for a period of 48 h. Circulating SAP values were measured by electroimmunoassay (24) in samples taken during and after the infusion, at the times shown. Each line represents a different individual patient.
(R)-1-[6-(R)-2-Carboxy-pyrrolidin-1-yl]-6-oxo-hexanoyl]pyrrolidine-2-carboxylic acid was administered for 48 h by intravenous infusion to 8 patients with systemic amyloidosis (7 with AL and one with AA type), one patient with minor localised AL amyloidosis, and one who is a carrier of the amyloidogenic Ala60 transthyretin variant but has no clinical amyloidosis. […] In initial studies with slow continuous infusion, the SAP concentration started to fall when about 2 mg of (R)-1-[6-(R)-2-Carboxy-pyrrolidin-1-yl]-6-oxo-hexanoyl]pyrrolidine-2-carboxylic acid had been given, and in subsequent studies this amount was therefore injected as a bolus at the outset, followed by infusion at the rates shown (FIG. 4). […] However, after drug infusion had ceased, the plasma SAP concentration rapidly returned to normal in the individuals with little or no amyloid, whereas this recovery was markedly delayed in subjects with significant amyloidosis. In the one patient with a very heavy amyloid load, the plasma SAP concentration remained below 25% of its initial value 20 days after the infusion. Most of the daily production of SAP, which is about 50-100 mg per day (15), was evidently distributing into the amyloid deposits before becoming available to replete the plasma pool. This is very strong indirect evidence that even such a brief infusion of (R)-1-[6-(R)-2-Carboxy-pyrrolidin-1-yl]-6-oxo-hexanoyl]pyrrolidine-2-carboxylic acid had substantially depleted the amyloid-associated SAP.
Two individual patients with systemic amyloidosis and moderate amyloid loads received (R)-1-[6-(R)-2-Carboxy-pyrrolidin-1-yl]-6-oxo-hexanoyl]pyrrolidine-2-carboxylic acid (desapin) by intravenous infusion at the steady rates shown. Circulating SAP concentrations started to fall almost immediately and had halved when the concentrations of drug and SAP protomer were equimolar.
The potency of (R)-1-[6-(R)-2-Carboxy-pyrrolidin-1-yl]-6-oxo-hexanoyl]pyrrolidine-2-carboxylic acid in depleting circulating SAP was remarkable, with SAP values falling when the concentration ratio of drug to SAP pentamer in the plasma approached equimolar (FIG. 7). […] This is evidently the species recognised as abnormal and promptly cleared by the liver.

[1] = drug:protein 1:1, calcium present
[2] = drug:protein 10:1, calcium present
[3] = drug:protein 100:1, calcium present

T3 sequence (P02743 20-223): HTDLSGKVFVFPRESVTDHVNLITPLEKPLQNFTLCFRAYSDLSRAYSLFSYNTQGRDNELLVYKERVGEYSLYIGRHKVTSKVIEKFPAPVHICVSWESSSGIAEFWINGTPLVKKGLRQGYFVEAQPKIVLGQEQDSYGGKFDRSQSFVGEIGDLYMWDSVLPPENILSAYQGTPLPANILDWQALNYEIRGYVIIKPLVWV

Q: `O=C(O)[C@H]1CCCN1C(=O)CCCCC(=O)N1CCC[C@@H]1C(=O)O` [(R)-1-[6-(R)-2-Carboxy-pyrrolidin-1-yl]-6-oxo-hexanoyl]pyrrolidine-2-carboxylic acid] was tested. Which “Elution volume” value (CRP in whole human serum; [1]) did it give?
A: Its value is 12.0 to 12.5 mL.

Q: And the Molecular assembly (CRP in whole human serum; [1])?
A: The Molecular assembly was “Pentamer”.

Q: What about the “Elution volume” value (CRP in whole human serum; [2]) of the same compound?
A: The value was 12.0 to 12.5 mL.

Q: And the Molecular assembly (CRP in whole human serum; [2])?
A: Its Molecular assembly is “Pentamer”.

Q: And the “Elution volume” value (CRP in whole human serum; [3])?
A: Its value is 12.0 to 12.5 mL.

Q: What about the Molecular assembly (CRP in whole human serum; [3]) of the same compound?
A: The Molecular assembly was “Pentamer”.

Q: And the “Routes that caused depletion of circulating SAP in normal wild type mice” value (circulating SAP)?
A: Its value is “neither oral administration, nor intermittent injection or continuous infusion”.

Q: What about the “SAP clearance from plasma by the end of the infusion” value (plasma SAP; 0.25 mg/kg/day and all higher rates up to 6 mg/kg/day) of the same compound?
A: Its value is “almost completely cleared”.

Q: And the “Depletion of circulating SAP” value (plasma SAP; 48 h intravenous infusion, all 10 subjects)?
A: Its value is “dramatic, rapid, and consistent depletion”.

Q: And the “Plasma SAP concentration, of its initial value” (plasma SAP; 20 days after the infusion, one patient with very heavy amyloid load)?
A: Its value is “below 25%”.

Q: What about the SAP depletion (plasma SAP; infusion rate 0.1 mg/kg/day) of the same compound?
A: The SAP depletion was “slower and less complete”.

Q: What about the “Amount of drug given when SAP concentration started to fall” value (plasma SAP; slow continuous intravenous infusion) of the same compound?
A: Its value is “about 2 mg”.

Q: What about the “Circulating SAP concentration when drug and SAP protomer concentrations were equimolar” value (plasma SAP; two patients, 48 h intravenous infusion) of the same compound?
A: The value was “halved”.
